Laboratory results published in ChEMBL document CHEMBL5537118, “Synthesis of cinnamoyl tethered indoline derivatives with anti-inflammatory and antioxidant activities” (Eur J Med Chem, 2024).
Active and inactive are the calls of the source. No cut-off for these calls is given here.

Assays:
RAW264.7 [1] = test: Antioxidant activity in H2O2-stimulated mouse RAW264.7 cells assessed as protection against cell damage at 2 uM pretreated for 30 mins followed by H2O2 stimulation and measured after 4 hrs by MTT assay relative to control; format: functional; details: time 4.5 hrs
RAW264.7 [2] = test: Antiinflammatory activity in LPS-induced mouse RAW264.7 cells assessed as inhibition of NO production pretreated for 1 hr followed by LPS addition and measured after 24 hrs by griess reagent based assay; format: functional, cell-based
RAW264.7 [3] = test: Antiinflammatory activity in LPS-induced mouse RAW264.7 cells assessed as inhibition of NO production at 2 to 10 uM pretreated for 1 hr followed by LPS addition and measured after 24 hrs by griess reagent based assay; format: functional, cell-based; details: dose 2-10 µM, time 25.0 hrs
RAW264.7 [4] = test: Inhibition of ROS burst in rotenone-stimulated mouse RAW264.7 cells assessed as reduction in ROS level at 0.5 to 2 uM pretreated for 30 mins followed by rotenone addition and measured after 4 hrs by DCFH-DA staining based flow cytometry analysis; format: functional, cell-based; details: dose 0.5-2 µM, time 4.5 hrs
RAW264.7 [5] = test: Antiinflammatory activity in LPS-induced mouse RAW264.7 cells assessed as reduction in TNF-alpha level incubated for 24 hrs by ELISA; format: functional, cell-based
RAW264.7 [6] = test: Effect on p65 total protein expression in LPS-induced mouse RAW264.7 cells at 0.5 to 2 uM by Western blot analysis; format: functional, cell-based; details: dose 0.5-2 µM
RAW264.7 [7] = test: Inhibition of NF-kappaB activation in LPS-induced mouse RAW264.7 cells assessed as inhibition of p65 phosphorylation by measuring reduction in p-p65/p65 expression at 0.5 to 2 uM by Western blot analysis; format: cell-based; details: dose 0.5-2 µM
Mus musculus [8] = test: Antiinflammatory activity in carrageenan-induced Kunming mouse model of paw edema assessed as paw volume at 10 mg/kg, ip pretreated for 1 hr followed by carrageenan administration and measured immediately by digital plethysmometer (reference value: 0.116 +/- 0.042 mL); format: functional
Mus musculus [9] = test: Antiinflammatory activity in carrageenan-induced Kunming mouse model of paw edema assessed as paw volume at 10 mg/kg, ip pretreated for 1 hr followed by carrageenan administration and measured after 5 hrs by digital plethysmometer (reference value: 0.362 +/- 0.016 mL); format: functional; details: time 6 hrs
Mus musculus [10] = test: Antiinflammatory activity in carrageenan-induced Kunming mouse model of paw edema assessed as paw volume at 30 mg/kg, ip pretreated for 1 hr followed by carrageenan administration and measured after 5 hrs by digital plethysmometer (reference value: 0.362 +/- 0.016 mL); format: functional; details: time 6 hrs
Mus musculus [11] = test: Antiinflammatory activity in carrageenan-induced Kunming mouse model of paw edema assessed as edema inhibition at 30 mg/kg, ip pretreated for 1 hr followed by carrageenan administration and measured after 1 hr relative to control; format: functional; details: time 2 hrs
Mus musculus [12] = test: Antiinflammatory activity in carrageenan-induced Kunming mouse model of paw edema assessed as edema inhibition at 1 mg/kg, ip pretreated for 1 hr followed by carrageenan administration and measured after 3 hrs relative to control; format: functional; details: time 4 hrs
Mus musculus [13] = test: Antiinflammatory activity in carrageenan-induced Kunming mouse model of paw edema assessed as edema inhibition at 30 mg/kg, ip pretreated for 1 hr followed by carrageenan administration and measured after 3 hrs relative to control; format: functional; details: time 4 hrs
Mus musculus [14] = test: Antiinflammatory activity in carrageenan-induced Kunming mouse model of paw edema assessed as edema inhibition at 1 mg/kg, ip pretreated for 1 hr followed by carrageenan administration and measured after 5 hrs relative to control; format: functional; details: time 6 hrs
Mus musculus [15] = test: Antiinflammatory activity in carrageenan-induced Kunming mouse model of paw edema assessed as edema inhibition at 10 mg/kg, ip pretreated for 1 hr followed by carrageenan administration and measured after 5 hrs relative to control; format: functional; details: time 6 hrs
Mus musculus [16] = test: Antiinflammatory activity in carrageenan-induced Kunming mouse model of paw edema assessed as paw volume at 30 mg/kg, IG pretreated for 1 hr followed by carrageenan administration and measured after 3 hrs by digital plethysmometer (reference value: 0.365 +/- 0.044 mL); format: functional; details: time 4 hrs
Mus musculus [17] = test: Antiinflammatory activity in carrageenan-induced Kunming mouse model of paw edema assessed as paw volume at 30 mg/kg, IG pretreated for 1 hr followed by carrageenan administration and measured after 5 hrs by digital plethysmometer (reference value: 0.353 +/- 0.024 mL); format: functional; details: time 6 hrs
Mus musculus [18] = test: Antiinflammatory activity in carrageenan-induced Kunming mouse model of paw edema assessed as edema inhibition at 30 mg/kg, IG pretreated for 1 hr followed by carrageenan administration and measured after 1 hr relative to control; format: functional; details: po, time 2 hrs
Mus musculus [19] = test: Antioxidant activity in carrageenan-induced Kunming mouse model of paw edema assessed as increase in SOD activity in paw tissue at 1 to 30 mg/kg, ip pretreated for 1 hr followed by carrageenan administration and measured after 5 hrs by ELISA; format: functional, organism-based; details: dose 1-30 mg/kg, time 6.0 hrs

IC50 (RAW264.7 [2]): 0.9 µM | IC50 (RAW264.7 [5]; RAW264.7, 24 h): 1.52 µM
Compound: O=C(/C=C/c1ccc(O)c(O)c1)NCCCN1CCc2cc(Cl)ccc21
Activity (RAW264.7 [1]): ~100% | Activity (RAW264.7 [3]): Active | inhibition (RAW264.7 [4]): Active | Activity (RAW264.7 [5]): Dose-Dependent Effect | Activity (RAW264.7 [6]): inactive | inhibition (RAW264.7 [7]): Active | Activity (Mus musculus [8]): 0.128 mL | Activity (Mus musculus [9]): 0.155 mL | Activity (Mus musculus [10]): 0.137 mL | inhibition in vivo at 30 mg/kg (Mus musculus [11]): 87.1% | inhibition in vivo at 1 mg/kg (Mus musculus [12]): 45.1% | inhibition in vivo at 30 mg/kg (Mus musculus [13]): 95.9% | inhibition in vivo at 1 mg/kg (Mus musculus [14]): 57.3% | inhibition in vivo at 10 mg/kg (Mus musculus [15]): 86.6% | Activity (Mus musculus [16]): 0.243 mL | Activity (Mus musculus [17]): 0.227 mL | inhibition in vivo at 30 mg/kg (Mus musculus [18]): 24.6% | Activity (Mus musculus [19]): Active
